Test results as given in ChEMBL document CHEMBL1201862, “PubChem BioAssay data set” (2004).
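Cultured in 96-well plates, cells were exposed to test compound for 48 hours across five concentrations. GI50 = concentration required for 50% inhibition of growth.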 Active and inactive are the calls of the source. Cut-off read from the data, not from the text of the source: active = GI50 up to about 1.1 µM and inactive = higher.

What was measured:
Test in all cases: NCI anticancer screen, dose series, 48 h
[1] = tested on: 786-0
[2] = tested on: CAKI-1
[3] = tested on: COLO 205
[4] = tested on: EKVX
[5] = tested on: HCC 2998
[6] = tested on: HCT-116
[7] = tested on: HCT-15
[8] = tested on: HOP-62
[9] = tested on: KM12
[10] = tested on: LOX IMVI
[11] = tested on: MDA-N
[12] = tested on: Malme-3M
[13] = tested on: RPMI-8226
[14] = tested on: SN12C
[15] = tested on: U-251
[16] = tested on: UACC-257
[17] = tested on: UO-31
[18] = tested on: NCI-H226
[19] = tested on: NCI-H522
[20] = tested on: SK-OV-3

Compound	GI50 [1]	GI50 [2]	GI50 [3]	GI50 [4]	GI50 [5]	GI50 [6]	GI50 [7] [µM]	GI50 [8]	GI50 [9]	GI50 [10]	GI50 [11]	GI50 [12]	GI50 [13]	GI50 [14]	GI50 [15]	GI50 [16]	GI50 [17]	GI50 [18]	GI50 [19]	GI50 [20]
CN1CCN(c2n[nH]c(=O)c3c2nnn3Cc2ccccc2)CC1	> 100 µM (inactive)	> 100 µM (inactive)	> 100 µM (inactive)	> 100 µM (inactive)	> 100 µM (inactive)	> 100 µM (inactive)	> 100	> 100 µM (inactive)	> 100 µM (inactive)	> 100 µM (inactive)	0.482 µM (active)	> 100 µM (inactive)	> 100 µM (inactive)	15.5 µM (inactive)	> 100 µM (inactive)	> 100 µM (inactive)	71.6 µM (inactive)	–	–	–
COc1ccccc1-c1cc(=O)c2ccccc2n1C1CC1	3.99 µM (inactive)	3.49 µM (inactive)	1.57 µM (inactive)	–	–	1.23 µM (inactive)	2.55	3.95 µM (inactive)	2.37 µM (inactive)	3.89 µM (inactive)	4.06 µM (inactive)	–	1.71 µM (inactive)	5.08 µM (inactive)	3.54 µM (inactive)	8.2 µM (inactive)	3.85 µM (inactive)	2.42 µM (inactive)	0.865 µM (active)	6.73 µM (inactive)
CCN(CC)CCCC(C)Nc1cc(/C=C/c2ccc(Cl)cc2)nc2cc(N(C)C)ccc12 (stereo not given)	2.92 µM (inactive)	–	–	1.73 µM (inactive)	2.07 µM (inactive)	1.24 µM (inactive)	1.67	1.89 µM (inactive)	1.7 µM (inactive)	–	1.47 µM (inactive)	–	–	1.8 µM (inactive)	1.64 µM (inactive)	–	2.04 µM (inactive)	3.71 µM (inactive)	–	–
COC1=CC(=O)C2=C(C1=O)[C@H]1CC[C@]3(C)[C@@H](OC(C)=O)CC[C@H]3[C@@H]1CC2	55.6 µM (inactive)	49 µM (inactive)	44.2 µM (inactive)	13.6 µM (inactive)	–	29.3 µM (inactive)	49.5	> 100 µM (inactive)	60.3 µM (inactive)	15.1 µM (inactive)	28.6 µM (inactive)	30.3 µM (inactive)	31 µM (inactive)	95.9 µM (inactive)	30.3 µM (inactive)	27.1 µM (inactive)	> 100 µM (inactive)	75.2 µM (inactive)	> 100 µM (inactive)	> 100 µM (inactive)
CC(=O)CC(=O)CCC(=O)Nc1cccc(C(F)(F)F)c1	> 100 µM (inactive)	> 100 µM (inactive)	> 100 µM (inactive)	> 100 µM (inactive)	> 100 µM (inactive)	> 100 µM (inactive)	> 100	> 100 µM (inactive)	> 100 µM (inactive)	> 100 µM (inactive)	–	> 100 µM (inactive)	> 100 µM (inactive)	> 100 µM (inactive)	> 100 µM (inactive)	> 100 µM (inactive)	> 100 µM (inactive)	> 100 µM (inactive)	> 100 µM (inactive)	> 100 µM (inactive)
CN(C=O)/C=C/c1cc(O)ccc1O	18.5 µM (inactive)	20.3 µM (inactive)	21.3 µM (inactive)	40.6 µM (inactive)	> 63 µM (inactive)	33 µM (inactive)	36.6	> 43 µM (inactive)	63.7 µM (inactive)	23.2 µM (inactive)	–	39.4 µM (inactive)	26.1 µM (inactive)	20.9 µM (inactive)	39.6 µM (inactive)	30.3 µM (inactive)	32 µM (inactive)	39.7 µM (inactive)	4.17 µM (inactive)	> 86.1 µM (inactive)
CC(=O)c1ccc(NC(=O)C(=O)C(C(=O)/C=C/c2ccccc2)C2OC(=O)c3ccccc32)cc1 (stereo not given)	> 100 µM (inactive)	> 100 µM (inactive)	> 100 µM (inactive)	> 100 µM (inactive)	> 100 µM (inactive)	> 100 µM (inactive)	> 100	> 100 µM (inactive)	> 100 µM (inactive)	> 100 µM (inactive)	–	> 100 µM (inactive)	54.2 µM (inactive)	> 100 µM (inactive)	83 µM (inactive)	> 100 µM (inactive)	> 100 µM (inactive)	> 100 µM (inactive)	> 100 µM (inactive)	> 100 µM (inactive)
COc1ccc2c(c1)C(N)=C(Cc1ccncc1)C2=O	> 100 µM (inactive)	> 100 µM (inactive)	> 100 µM (inactive)	53.5 µM (inactive)	–	> 100 µM (inactive)	> 100	> 100 µM (inactive)	> 100 µM (inactive)	> 100 µM (inactive)	> 100 µM (inactive)	> 100 µM (inactive)	> 100 µM (inactive)	63 µM (inactive)	> 100 µM (inactive)	> 100 µM (inactive)	46 µM (inactive)	–	89.7 µM (inactive)	> 100 µM (inactive)
